The subject of test [1] is Peripheral Blood Mononuclear Cells (PBMCs), TNFα release. As to the kind of experiment: LPS-stimulated PBMC TNFα release assay. The test is classed as cell-based. Conditions: human PBMC, LPS (10 ng/ml), 18 h, compound 1 h before LPS; read-out: LPS-stimulated PBMC TNFα release inhibition. The method in brief:
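Human PBMCs from healthy donors, serum-starved 3 h, then pre-incubated 1 h at 37 °C with compound in 1% FBS medium before LPS (10 ng/ml) for 18 h. Supernatant TNFα measured by MSD; IC50 from dose-response as % inhibition of control, at least three experiments.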

The next test concerns the target T1, p38 alpha (Homo sapiens, UniProt Q16539).
T1 construct: purchased Invitrogen PV3304
As to the kind of experiment: P38 alpha enzyme inhibition assay (Alphascreen kinase activity assay). The test is classed as biochemical. The following applies: 100 pM p38 alpha, 2 hours preincubation at 25° C., 250 μM ATP, ATF-2 fusion protein; read-out: p38α inhibition. In a few lines:
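100 pM p38 alpha preincubated 2 h at 25 °C with compound and 0.3 μg/ml ATF-2 fusion substrate (HEPES pH 7.5, MgCl2, 1% DMSO). Reaction started with 250 μM ATP, run 1 h at 25 °C, stopped with EDTA; phospho-ATF2 detected by AlphaScreen luminescence. IC50 from concentration-response curves.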
(In general: In Alpha technology, singlet oxygen from a donor bead excites a nearby acceptor bead.)

Structures can show the parent of a compound that is named as a salt. A value given as a limit tells only on which side of the number the result lay.

For 18 molecules, IC50 results are on record in patent US10364245B2 (CHIESI FARMACEUTICI S.p.A., priority 2017, dated 2019).

T1 sequence (Q16539 whole entry): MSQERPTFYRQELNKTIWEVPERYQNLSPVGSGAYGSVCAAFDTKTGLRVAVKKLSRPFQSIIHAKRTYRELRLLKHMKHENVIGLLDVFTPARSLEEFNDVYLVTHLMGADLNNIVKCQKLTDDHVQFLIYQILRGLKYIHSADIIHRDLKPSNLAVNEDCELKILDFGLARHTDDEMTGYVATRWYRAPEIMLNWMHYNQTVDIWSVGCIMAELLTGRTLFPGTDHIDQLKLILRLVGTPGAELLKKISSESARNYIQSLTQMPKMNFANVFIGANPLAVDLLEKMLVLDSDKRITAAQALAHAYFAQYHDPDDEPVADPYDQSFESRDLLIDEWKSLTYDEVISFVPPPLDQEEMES

Regarding `CC(C)(C)Cc1nnc2ccc(O[C@@H]3CC[C@H](NC(=O)Nc4cc(C(C)(C)C)nc(C(=O)NCCN5CCOCC5)n4)c4ccccc43)cn12` [Example 99, 4-(tert-butyl)-N-(2-morpholinoethyl)-6-(3-((1S,4R)-4-((3-neopentyl-[1,2,4]triazolo[4,3-a]pyridin-6-yl)oxy)-1,2,3,4-tetrahydronaphthalen-1-yl)ureido)pyrimidine-2-carboxamide], the IC50 is over 5 nM in test [1] and 1 to 10 nM on p38 alpha.

Consider `CC[C@H](C)c1nnc2ccc(O[C@@H]3CC[C@H](NC(=O)Nc4cc(C(C)(C)C)nc(C(=O)NCCN(C)C)n4)c4ccccc43)cn12` [Example 100, 4-(tert-butyl)-6-(3-((1S,4R)-4-((3-((S)-sec-butyl)-[1,2,4]triazolo[4,3-a]pyridin-6-yl)oxy)-1,2,3,4-tetrahydronaphthalen-1-yl)ureido)-N-(2-(dimethylamino)ethyl)-pyrimidine-2-carboxamide], for which the IC50 in test [1] is 1 to 5 nM; at p38 alpha, under 1 nM.

As to `CC[C@H](C)c1nnc2ccc(O[C@@H]3CC[C@H](NC(=O)Nc4cc(C(C)(C)C)nc(C(=O)NCCN5CCOCC5)n4)c4ccccc43)cn12` [Example 102, 4-(tert-butyl)-6-(3-((1S,4R)-4-((3-((S)-sec-butyl)-[1,2,4]triazolo[4,3-a]pyridin-6-yl)oxy)-1,2,3,4-tetrahydronaphthalen-1-yl)ureido)-N-(2-morpholinoethyl)-pyrimidine-2-carboxamide], the IC50 in test [1] was over 5 nM; on p38 alpha, under 1 nM.

With `CC(C)(C)c1cc(NC(=O)N[C@H]2CC[C@@H](Oc3ccc4nnc(C(C)(C)C)n4c3)c3ccccc32)nc(CNC(=O)CCN2CCOCC2)n1` [Example 103, N-((4-(tert-butyl)-6-(3-((1S,4R)-4-((3-(tert-butyl)-[1,2,4]-triazolo[4,3-a]pyridin-6-yl)oxy)-1,2,3,4-tetrahydronaphthalen-1-yl)ureido)pyrimidin-2-yl)methyl)-3-morpholinopropanamide], the IC50 in test [1] is over 5 nM; on p38 alpha, 1 to 10 nM.

As to `COC1CN(CCNC(=O)c2nc(NC(=O)N[C@H]3CC[C@@H](Oc4ccc5nnc(C(C)(C)C)n5c4)c4ccccc43)cc(C(C)(C)C)n2)C1` [Example 104, 4-(tert-butyl)-6-(3-((1S,4R)-4-((3-(tert-butyl)-[1,2,4]triazolo[4,3-a]pyridin-6-yl)oxy)-1,2,3,4-tetrahydronaphthalen-1-yl)ureido)-N-(2-(3-methoxyazetidin-1-yl)ethyl)pyrimidine-2-carboxamide], the IC50 was under 1 nM in test [1] and 1 to 10 nM at p38 alpha.

As to `CC[C@H](C)c1nnc2ccc(O[C@@H]3CC[C@H](NC(=O)Nc4cc(C(C)(C)C)nc(C(=O)NCCN(C)CCOC)n4)c4ccccc43)cn12` [Example 105, 4-(tert-butyl)-6-(3-((1S,4R)-4-((3-((S)-sec-butyl)-[1,2,4]triazolo[4,3-a]pyridin-6-yl)oxy)-1,2,3,4-tetrahydronaphthalen-1-yl)ureido)-N-(2-((2-methoxyethyl)(methyl)-amino)ethyl)pyrimidine-2-carboxamide], the results for the IC50 (in test [1]; at p38 alpha) were 1 to 5 nM and under 1 nM, respectively.

In the case of `CN(CCNC(=O)c1nc(NC(=O)N[C@H]2CC[C@@H](Oc3ccc4nnc(C(C)(C)C)n4c3)c3ccccc32)cc(C(C)(C)C)n1)C1COC1` [Example 107, 4-(tert-butyl)-6-(3-((1S,4R)-4-((3-(tert-butyl)-[1,2,4]triazolo[4,3-a]pyridin-6-yl)oxy)-1,2,3,4-tetrahydronaphthalen-1-yl)ureido)-N-(2-(methyl(oxetan-3-yl)amino)ethyl)-pyrimidine-2-carboxamide], the IC50 in test [1] is over 5 nM; at p38 alpha, under 1 nM.

For the molecule `CC(C)(C)c1cc(NC(=O)N[C@H]2CC[C@@H](Oc3ccc4nnc(C(C)(C)C)n4c3)c3ccccc32)nc(C(=O)NCCN2CCC(O)CC2)n1` [Example 108, 4-(tert-butyl)-6-(3-((1S,4R)-4-((3-(tert-butyl)-[1,2,4]triazolo[4,3-a]pyridin-6-yl)oxy)-1,2,3,4-tetrahydronaphthalen-1-yl)ureido)-N-(2-(4-hydroxypiperidin-1-yl)ethyl)pyrimidine-2-carboxamide], the IC50 in test [1] is over 5 nM; at p38 alpha it was under 1 nM.

As to `CC(C)(C)c1cc(NC(=O)N[C@H]2CC[C@@H](Oc3ccc4nnc(C5(C)CCC5)n4c3)c3ccccc32)nc(C(=O)NCCN2CCOCC2)n1` [Example 109, 4-(tert-butyl)-6-(3-((1S,4R)-4-((3-(1-methylcyclobutyl)-[1,2,4]triazolo[4,3-a]pyridin-6-yl)oxy)-1,2,3,4-tetrahydronaphthalen-1-yl)ureido)-N-(2-morpholinoethyl)-pyrimidine-2-carboxamide], the results for the IC50 (in test [1]; at p38 alpha) were over 5 nM and under 1 nM, respectively.

With `CN1CCC[C@H]1C(=O)NCc1nc(NC(=O)N[C@H]2CC[C@@H](Oc3ccc4nnc(C(C)(C)C)n4c3)c3ccccc32)cc(C(C)(C)C)n1` [Example 110, (S)-N-((4-(tert-butyl)-6-(3-((1S,4R)-4-((3-(tert-butyl)-[1,2,4]triazolo[4,3-a]pyridin-6-yl)oxy)-1,2,3,4-tetrahydronaphthalen-1-yl)ureido)pyrimidin-2-yl)methyl)-1-methylpyrrolidine-2-carboxamide], the IC50 in test [1] was 1 to 5 nM; at p38 alpha, 1 to 10 nM.

On to `CC(C)(C)c1cc(NC(=O)N[C@H]2CC[C@@H](Oc3ccc4nnc(C(C)(C)C)n4c3)c3ccccc32)nc(C(=O)NCCCN2CCCOCC2)n1` [Example 111, N-(3-(1,4-Oxazepan-4-yl)propyl)-4-(tert-butyl)-6-(3-((1S,4R)-4-((3-(tert-butyl)-[1,2,4]triazolo[4,3-a]pyridin-6-yl)oxy)-1,2,3,4-tetrahydronaphthalen-1-yl)ureido)pyrimidine-2-carboxamide partial formate salt], for which the IC50 was over 5 nM in test [1] and under 1 nM on p38 alpha.

In the case of `CN(C)CC(C)(C)NC(=O)c1nc(NC(=O)N[C@H]2CC[C@@H](Oc3ccc4nnc(C(C)(C)C)n4c3)c3ccccc32)cc(C(C)(C)C)n1` [Example 112, 4-(tert-butyl)-6-(3-((1S,4R)-4-((3-(tert-butyl)-[1,2,4]triazolo[4,3-a]pyridin-6-yl)oxy)-1,2,3,4-tetrahydronaphthalen-1-yl)ureido)-N-(1-(dimethylamino)-2-methylpropan-2-yl)pyrimidine-2-carboxamide], the IC50 in test [1] fell in the range of 1 to 5 nM; at p38 alpha, 1 to 10 nM.

On to `CC(C)(C)c1cc(NC(=O)N[C@H]2CC[C@@H](Oc3ccc4nnc(C(C)(C)C)n4c3)c3ccccc32)nc(CN2CCNC(=O)C2)n1` [Example 113, 1-(6-(tert-Butyl)-2-((3-oxopiperazin-1-yl)methyl)pyrimidin-4-yl)-3-((1S,4R)-4-((3-(tert-butyl)-[1,2,4]-triazolo[4,3-a]pyridin-6-yl)oxy)-1,2,3,4-tetrahydronaphthalen-1-yl)urea partial formate salt], for which the results for the IC50 (in test [1]; at p38 alpha) were over 5 nM and 1 to 10 nM, respectively.

For `CCN(C)CCNC(=O)c1nc(NC(=O)N[C@H]2CC[C@@H](Oc3ccc4nnc(C(C)(C)C)n4c3)c3ccccc32)cc(C(C)(C)C)n1` [Example 114, 4-(tert-butyl)-6-(3-((1S,4R)-4-((3-(tert-butyl)-[1,2,4]triazolo[4,3-a]pyridin-6-yl)oxy)-1,2,3,4-tetrahydronaphthalen-1-yl)ureido)-N-(2-(ethyl(methyl)amino)-ethyl)pyrimidine-2-carboxamide], the IC50 (in test [1]; on p38 alpha) was under 1 nM throughout.

For `CN(C)C(C)(C)CNC(=O)c1nc(NC(=O)N[C@H]2CC[C@@H](Oc3ccc4nnc(C(C)(C)C)n4c3)c3ccccc32)cc(C(C)(C)C)n1` [Example 117, 4-(tert-butyl)-6-(3-((1S,4R)-4-((3-(tert-butyl)-[1,2,4]triazolo[4,3-a]pyridin-6-yl)oxy)-1,2,3,4-tetrahydronaphthalen-1-yl)ureido)-N-(2-(dimethylamino)-2-methylpropyl)pyrimidine-2-carboxamide], the IC50 (in test [1]; on p38 alpha) was under 1 nM in each case.

Consider `CN(C)CCCNC(=O)c1nc(NC(=O)N[C@H]2CC[C@@H](Oc3ccc4nnc(C(C)(C)C)n4c3)c3ccccc32)cc(C(C)(C)C)n1` [Example 118, 4-(tert-butyl)-6-(3-((1S,4R)-4-((3-(tert-butyl)-[1,2,4]triazolo[4,3-a]pyridin-6-yl)oxy)-1,2,3,4-tetrahydronaphthalen-1-yl)ureido)-N-(3-(dimethylamino)-propyl)pyrimidine-2-carboxamide], for which the IC50 in test [1] fell in the range of 1 to 5 nM; at p38 alpha, 1 to 10 nM.

In the case of `CN1CCN(CCNC(=O)c2nc(NC(=O)N[C@H]3CC[C@@H](Oc4ccc5nnc(C(C)(C)C)n5c4)c4ccccc43)cc(C(C)(C)C)n2)CC1` [Example 119, 4-(tert-butyl)-6-(3-((1S,4R)-4-((3-(tert-butyl)-[1,2,4]triazolo[4,3-a]pyridin-6-yl)oxy)-1,2,3,4-tetrahydronaphthalen-1-yl)ureido)-N-(2-(4-methylpiperazin-1-yl)ethyl)pyrimidine-2-carboxamide], the IC50 in test [1] is over 5 nM; at p38 alpha it was under 1 nM.

With `CC(C)(C)c1cc(NC(=O)N[C@H]2CC[C@@H](Oc3ccc4nnc(C(C)(C)C)n4c3)c3ccccc32)nc(C(=O)NCCN(CCO)CCO)n1` [Example 120, N-(2-(bis(2-hydroxyethyl)amino)ethyl)-4-(tert-butyl)-6-(3-((1S,4R)-4-((3-(tert-butyl)-[1,2,4]triazolo[4,3-a]pyridin-6-yl)oxy)-1,2,3,4-tetrahydronaphthalen-1-yl)ureido)pyrimidine-2-carboxamide], the IC50 in test [1] is over 5 nM; at p38 alpha, under 1 nM.
